# From patent US11993582B2, “Crystalline forms of a LTA4H inhibitor” (Novartis AG, priority 2018, dated 2024)
# How the values were obtained:
# Type in all cases: physicochemical
# [1] = Competitive slurry experiments at different water activities
# Procedure: Competitive slurry experiments at different water activities at 25° C. and at 50° C. were performed. Competitive slurries of a (1:1) physical mixture of Modifications HB and B at different water activities were also performed.
# Hygroscopicity by DVS = assay: Hygroscopicity by DVS
# Description: Crystalline form HB is a hydrated form of (S)-3-amino-4-(5-(4-((5-chloro-3-fluoropyridin-2-yl)oxy)phenyl)-2H-tetrazol-2-yl)butanoic acid.
# [2] = Stability in solvent: equilibration of Form HB with solvent, residue analysed by XRPD; conditions: slurry experiments
# Procedure: Equilibrations with solvent were carried out to investigate the relative stability of form HB in solvent. 50 mg of Form HB is equilibrated with 1 mL solvent for 24 h (or 7 days, or 28 days) in a water bath at 25° C. or for 7 days at 50° C. The solutions are filtered and dried for 10 minutes in air. The resulting solid is analyzed by XRPD.
# Various solvent were investigated: acetone, acetonitrile, dichloromethane, dioxane, ethanol, heptane, methanol, THF, acetone/water mixtures from 10/90 to 90/10, acetonitrile/water mixtures from 10/90 to 90/10, dioxane/water mixtures from 10/90 to 90/10 and ethanol/water mixture from 10/90 to 90/10, tetrahydrofuran/water (50/50) and 1-propanol/water (70/30).
# [3] = Solubility in aqueous buffers and bio-relevant media
# [4] = Solid state stability in bulk (HPLC degradation products, XRPD)
# Procedure: The chemical and physical stability of form B and form HB was investigated, exposing the individual forms to high humidity at temperatures ranging from 25-80° C.
# The degradation products were analyzed by HPLC and the sample was analyzed by XPRD to detect any changes to the solid state.
smiles,measurement,setting,value
"N[C@@H](CC(=O)O)Cn1nnc(-c2ccc(Oc3ncc(Cl)cc3F)cc2)n1 (mixture of isomers) [Physical mixture of HB and B (1:1), (S)-3-amino-4-(5-(4-((5-chloro-3-fluoropyridin-2-yl)oxy)phenyl)-2H-tetrazol-2-yl)butanoic acid]",Solid form after competitive slurry,"[1]; 25 Degrees Celsius, Acetonitrile, aw 0.00, 2 days",Form B
same,Solid form after competitive slurry,"[1]; 25 Degrees Celsius, Acetonitrile, aw 0.00, 5 days",Form B
same,Solid form after competitive slurry,"[1]; 25 Degrees Celsius, Acetonitrile/water (83:17), aw 0.93, 2 days",Forms HB + B
same,Solid form after competitive slurry,"[1]; 25 Degrees Celsius, Acetonitrile/water (83:17), aw 0.93, 5 days",Forms HB + B
same,Solid form after competitive slurry,"[1]; 25 Degrees Celsius, Acetonitrile/water (88:12), aw 0.90, 2 days",Forms HB + B
same,Solid form after competitive slurry,"[1]; 25 Degrees Celsius, Acetonitrile/water (88:12), aw 0.90, 5 days",Forms HB + B
same,Solid form after competitive slurry,"[1]; 25 Degrees Celsius, Acetonitrile/water (92:8), aw 0.82, 2 days",Forms HB + B
same,Solid form after competitive slurry,"[1]; 25 Degrees Celsius, Acetonitrile/water (92:8), aw 0.82, 5 days",Forms HB + B
same,Solid form after competitive slurry,"[1]; 25 Degrees Celsius, Acetonitrile/water (97:3), aw 0.50, 2 days",Forms HB + B
same,Solid form after competitive slurry,"[1]; 25 Degrees Celsius, Acetonitrile/water (97:3), aw 0.50, 5 days",Form B
same,Solid form after competitive slurry,"[1]; 25 Degrees Celsius, Acetonitrile/water (98:2), aw 0.44, 2 days",Form B
same,Solid form after competitive slurry,"[1]; 25 Degrees Celsius, Acetonitrile/water (98:2), aw 0.44, 5 days",Form B
same,Solid form after competitive slurry,"[1]; 25 Degrees Celsius, Methanol, aw 0.00, 2 days",Form B
same,Solid form after competitive slurry,"[1]; 25 Degrees Celsius, Methanol, aw 0.00, 5 days",Form B
same,Solid form after competitive slurry,"[1]; 25 Degrees Celsius, Methanol/water (22:78), aw 0.90, 2 days",Forms HB + B
same,Solid form after competitive slurry,"[1]; 25 Degrees Celsius, Methanol/water (22:78), aw 0.90, 5 days",Forms HB + B
same,Solid form after competitive slurry,"[1]; 25 Degrees Celsius, Methanol/water (57:43), aw 0.70, 2 days",Forms HB + B
same,Solid form after competitive slurry,"[1]; 25 Degrees Celsius, Methanol/water (57:43), aw 0.70, 5 days",Forms HB + B
same,Solid form after competitive slurry,"[1]; 25 Degrees Celsius, Methanol/water (77:23), aw 0.50, 2 days",Form B
same,Solid form after competitive slurry,"[1]; 25 Degrees Celsius, Methanol/water (77:23), aw 0.50, 5 days",Form B
same,Solid form after competitive slurry,"[1]; 25 Degrees Celsius, Methanol/water (89:11), aw 0.30, 2 days",Form B
same,Solid form after competitive slurry,"[1]; 25 Degrees Celsius, Methanol/water (89:11), aw 0.30, 5 days",Form B
same,Solid form after competitive slurry,"[1]; 25 Degrees Celsius, Methanol/water (97:3), aw 0.11, 2 days",Form B
same,Solid form after competitive slurry,"[1]; 25 Degrees Celsius, Methanol/water (97:3), aw 0.11, 5 days",Form B
same,Solid form after competitive slurry,"[1]; 25 Degrees Celsius, Water, aw 1.00, 2 days",Forms HB + B
same,Solid form after competitive slurry,"[1]; 25 Degrees Celsius, Water, aw 1.00, 5 days",Forms HB + B
same,Water activity (aw) at which the mixture converted into pure Form B,[1]; 25° C.,≤ 0.5
same,Solid form after competitive slurry,"[1]; 25° C., water activities above aw 0.5",remained unchanged
same,Solid form after competitive slurry,"[1]; 50 degrees, Acetonitrile, aw 0.00, 2 days",Form B
same,Solid form after competitive slurry,"[1]; 50 degrees, Acetonitrile, aw 0.00, 5 days",Form B
same,Solid form after competitive slurry,"[1]; 50 degrees, Acetonitrile/water (83:17), aw 0.90, 2 days",Forms B + HB
same,Solid form after competitive slurry,"[1]; 50 degrees, Acetonitrile/water (83:17), aw 0.90, 5 days",Form B
same,Solid form after competitive slurry,"[1]; 50 degrees, Acetonitrile/water (88:12), aw 0.86, 2 days",Form B
same,Solid form after competitive slurry,"[1]; 50 degrees, Acetonitrile/water (88:12), aw 0.86, 5 days",Form B
same,Solid form after competitive slurry,"[1]; 50 degrees, Acetonitrile/water (92:8), aw 0.77, 2 days",Form B
same,Solid form after competitive slurry,"[1]; 50 degrees, Acetonitrile/water (92:8), aw 0.77, 5 days",Form B
same,Solid form after competitive slurry,"[1]; 50 degrees, Acetonitrile/water (97:3), aw 0.46, 2 days",Form B
same,Solid form after competitive slurry,"[1]; 50 degrees, Acetonitrile/water (97:3), aw 0.46, 5 days",Form B
same,Solid form after competitive slurry,"[1]; 50 degrees, Acetonitrile/water (98:2), aw 0.34, 2 days",Form B
same,Solid form after competitive slurry,"[1]; 50 degrees, Acetonitrile/water (98:2), aw 0.34, 5 days",Form B
same,Solid form after competitive slurry,"[1]; 50 degrees, Methanol, aw 0.00, 2 days",Form B
same,Solid form after competitive slurry,"[1]; 50 degrees, Methanol, aw 0.00, 5 days",Form B
same,Solid form after competitive slurry,"[1]; 50 degrees, Methanol/water (22:78), aw 0.90, 2 days",Forms HB + B
same,Solid form after competitive slurry,"[1]; 50 degrees, Methanol/water (22:78), aw 0.90, 5 days",Forms B + HB
same,Solid form after competitive slurry,"[1]; 50 degrees, Methanol/water (57:43), aw 0.71, 2 days",Form B
same,Solid form after competitive slurry,"[1]; 50 degrees, Methanol/water (57:43), aw 0.71, 5 days",Form B
same,Solid form after competitive slurry,"[1]; 50 degrees, Methanol/water (77:23), aw 0.51, 2 days",Form B
same,Solid form after competitive slurry,"[1]; 50 degrees, Methanol/water (77:23), aw 0.51, 5 days",Form B
same,Solid form after competitive slurry,"[1]; 50 degrees, Methanol/water (89:11), aw 0.31, 2 days",Form B
same,Solid form after competitive slurry,"[1]; 50 degrees, Methanol/water (89:11), aw 0.31, 5 days",Form B
same,Solid form after competitive slurry,"[1]; 50 degrees, Methanol/water (97:3), aw 0.21, 2 days",Form B
same,Solid form after competitive slurry,"[1]; 50 degrees, Methanol/water (97:3), aw 0.21, 5 days",Form B
same,Solid form after competitive slurry,"[1]; 50 degrees, Water, aw 1.00, 2 days",Forms B + HB
same,Solid form after competitive slurry,"[1]; 50 degrees, Water, aw 1.00, 5 days",Forms HB + B
same,Maximum water activity (aw) for transformation to Form B,[1]; 50° C.,≤ 0.7
"N[C@@H](CC(=O)O)Cn1nnc(-c2ccc(Oc3ncc(Cl)cc3F)cc2)n1 [Form B, (S)-3-amino-4-(5-(4-((5-chloro-3-fluoropyridin-2-yl)oxy)phenyl)-2H-tetrazol-2-yl)butanoic acid]",Maximum water uptake,Hygroscopicity by DVS; 25° C. at 90% RH by DVS,less than 0.7%
same,Hygroscopicity,Hygroscopicity by DVS; by DVS,slightly hygroscopic
same,Form conversion through slurry,[2],does not transform into other form
same,solubility,[3]; FaSSIF-V2 (pH=6.6),70 µg/mL
same,solubility,[3]; FeSSIF-V2 (pH=5.9),180 µg/mL
same,solubility,"[3]; aqueous buffers, aqueous buffer, pH values of 4 to 7",50 µg/mL
same,Hydrate formation,[4]; 1 week at 40° C./90% RH,no hydrate formation was detected
same,Stability in bulk,[4]; 1 week at 40° C./90% RH,stable
same,Chemical and physical stability in bulk,"[4]; test conditions 1-5: 1 week, tight or open container, room temperature to 80° C., up to 92% RH",displayed good stability and did not convert at all
